Laboratory results reported in patent US20150141435A1, “2-PYRIDONE ANTIMICROBIAL COMPOSITIONS” (Emergent BioSolutions, priority 2010, published 2015).
Where a name gives a salt, the structure may show the parent alone. Read-outs that look alike come from different tables or passages of the source.

Key:
Assay type in all cases: cell-based
[1] = system: S. aureus ATCC 25923; assay: MIC, CLSI broth microdilution (Table 1); details: Staphylococcus aureus
[2] = system: S. aureus ATCC 43300 (MRSA, FQ-S); assay: MIC, CLSI broth microdilution (Table 1); details: Staphylococcus aureus, read-out: MIC S. aureus ATCC 43300 (MRSA, FQ-S)
[3] = system: S. aureus BAA-1720 (MRSA, FQ-R); assay: MIC, CLSI broth microdilution (Table 1); details: Staphylococcus aureus, read-out: MIC S. aureus BAA-1720 (MRSA, FQ-R)
[4] = system: E. faecium ATCC 19434; assay: MIC, CLSI broth microdilution (Table 1); details: Enterococcus faecium
[5] = system: E. faecalis ATCC 29212; assay: MIC, CLSI broth microdilution (Table 1); details: Enterococcus faecalis
[6] = system: S. pneumonia ATCC 49619; assay: MIC, CLSI broth microdilution (Table 1); details: Streptococcus pneumoniae
[7] = system: E. coli ATCC 25922; assay: MIC, CLSI broth microdilution (Table 2); details: Escherichia coli
[8] = system: A. baumannii ATCC 19606; assay: MIC, CLSI broth microdilution (Table 2); details: Acinetobacter baumannii
[9] = system: P. aeruginosa ATCC 27853; assay: MIC, CLSI broth microdilution (Table 2); details: Pseudomonas aeruginosa
[10] = system: K. pneumoniae ATCC 33495; assay: MIC, CLSI broth microdilution (Table 2); details: Klebsiella pneumoniae
[11] = system: H. influenzae ATCC 49247; assay: MIC, CLSI broth microdilution (Table 2); details: Haemophilus influenzae
[12] = system: S. maltophilia ATCC 17677; assay: MIC, CLSI broth microdilution (Table 2); details: Stenotrophomonas maltophilia
[13] = system: Bacillus anthracis Ames strain; assay: microbe, parasite or virus in culture
[14] = system: Brucella abortus ATCC 23448; assay: microbe, parasite or virus in culture; details: ATCC23448
[15] = system: Burkholderia mallei ATCC 23344; assay: microbe, parasite or virus in culture; details: ATCC23344
[16] = system: Burkholderia pseudomallei ATCC 23343; assay: microbe, parasite or virus in culture; details: ATCC23343
[17] = system: Francisella tularensis Schu S4; assay: microbe, parasite or virus in culture; details: SCHUS4
[18] = system: Yersinia pestis C092; assay: microbe, parasite or virus in culture
[19] = ATCC25923, Gram positive, MHB, 37° C., 16-20 hours, read-out: MIC S. aureus ATCC 25923
[20] = Gram positive, MHB, 37° C., 16-20 hours
[21] = ATCC19434, Gram positive, MHB, 37° C., 16-20 hours, read-out: MIC E. faecium ATCC 19434
[22] = ATCC29212, Gram positive, MHB, 37° C., 16-20 hours, read-out: MIC E. faecalis ATCC 29212
[23] = ATCC49619, Gram positive, MHB, 37° C., 16-20 hours, read-out: MIC S. pneumonia ATCC 49619
[24] = ATCC25922, Gram negative, MHB, 37° C., 16-20 hours, read-out: MIC E. coli ATCC 25922
[25] = ATCC19606, Gram negative, MHB, 37° C., 16-20 hours, read-out: MIC A. baumannii B. ATCC 19606
[26] = ATCC27853, Gram negative, MHB, 37° C., 16-20 hours, read-out: MIC P. aeruginosa ATCC 27853
[27] = ATCC33495, Gram negative, MHB, 37° C., 16-20 hours, read-out: MIC K. pneumoniae ATCC 33495
[28] = ATCC49247, Gram negative, MHB, 37° C., 16-20 hours, read-out: MIC H. influenzae ATCC 49247
[29] = ATCC17677, Gram negative, MHB, 37° C., 16-20 hours, read-out: MIC S. maltophilia ATCC 17677
[30] = ATCC29212, read-out: MIC E. faecalis ATCC 29212
[31] = ATCC33495, read-out: MIC K. pneumoniae ATCC 33495
[32] = ATCC25923, read-out: MIC S. aureus ATCC 25923
[33] = ATCC19434, read-out: MIC E. faecium ATCC 19434
[34] = ATCC49619, read-out: MIC S. pneumonia ATCC 49619
[35] = ATCC25922, read-out: MIC E. coli ATCC 25922
[36] = ATCC19606, read-out: MIC A. baumannii B. ATCC 19606
[37] = ATCC27853, read-out: MIC P. aeruginosa ATCC 27853
[38] = ATCC49247, read-out: MIC H. influenzae ATCC 49247
[39] = ATCC17677, read-out: MIC S. maltophilia ATCC 17677

Structure (SMILES) | MIC [1, 19] [µg/mL] | MIC [2, 20] [µg/mL] | MIC [3, 20] [µg/mL] | MIC [4, 21] [µg/mL] | MIC [5, 22] [µg/mL] | MIC [6, 23] [µg/mL] | MIC [7, 24] [µg/mL] | MIC [9, 26] [µg/mL] | MIC [11, 28] [µg/mL] | MIC [12, 29] [µg/mL] | MIC [13] [µg/mL] | MIC [14] [µg/mL] | MIC [15] [µg/mL] | MIC [16] [µg/mL] | MIC [17] [µg/mL] | MIC [18] [µg/mL] | MIC [5, 30] [µg/mL] | MIC [10, 31] [µg/mL] | MIC [6, 34] [µg/mL] | MIC [8, 36] [µg/mL] | further results
Cc1c(-c2ccc(Cl)cc2)ccn2c(=O)c(C(=O)O)cc(C3CC3)c12 [Example 45 K salt, 1-cyclopropyl-8-(4-chloro-phenyl)-9-methyl-4-oxo-4H-quinolizine-3-carboxylic acid] | 0.016 to 0.032 | 0.016 | 0.5 | 0.5 to 1 | 0.064 | 0.25 | 0.25 | 2 | 0.016 | 0.25 | 0.016 | 0.031 | 0.063 to 0.125 | 0.063 to 0.125 | 0.008 to 0.016 | 0.031 |  |  |  |  | MIC [8, 25]: 0.25 µg/mL; MIC [10, 27]: 0.5 to 1 µg/mL
Cc1c(-c2ccnc(F)c2)ccn2c(=O)c(C(=O)O)cc(C3CC3)c12 [Example 20 K salt, 1-cyclopropyl-8-(2-fluoro-pyridin-4-yl)-9-methyl-4-oxo-4H-quinolizine-3-carboxylic acid] | 0.032 | 0.016 | 1 | 1 |  | 0.25 | 0.064 | 2 to 4 | ≤ 0.004 | 0.25 | 0.031 | 0.063 | 0.125 | 0.25 | 0.008 to 0.016 | 0.063 | 0.125 | 0.125 to 0.25 |  |  | MIC [8, 25]: 0.25 µg/mL
Cc1c(-c2ccc(CN)cc2)ccn2c(=O)c(C(=O)O)cc(C3CC3)c12 [Example 31 K salt, 8-(4-(aminomethyl)-phenyl)-1-cyclopropyl-9-methyl-4-oxo-4H-quinolizine-3-carboxylic acid] |  |  |  |  |  |  |  |  |  |  | 0.016 to 0.031 | 0.25 | 0.5 to 1 | 1 | 0.125 to 0.5 | 0.25 | 0.25 | 0.125 to 0.25 | 0.125 | 0.25 | MIC [1, 32]: 0.064 µg/mL; MIC [2]: 0.032 µg/mL; MIC [3]: 1 µg/mL; MIC [4, 33]: 2 µg/mL; MIC [7, 35]: 0.032 µg/mL; MIC [9, 37]: 1 µg/mL; MIC [11, 38]: 0.016 µg/mL; MIC [12, 39]: 0.125 µg/mL
Cc1c(-c2ccc(CO)cc2)ccn2c(=O)c(C(=O)O)cc(C3CC3)c12 [Example 48 K salt, 1-cyclopropyl-8-(4-hydroxy-methyl-phenyl)-9-methyl-4-oxo-4H-quinolizine-3-carboxylic acid] | 0.008 to 0.016 | 0.008 | 0.5 | 1 | 0.032 to 0.064 |  | 0.064 | 2 | ≤ 0.004 | 0.25 | 0.008 | 0.031 | 0.125 | 0.125 | 0.016 | 0.031 |  |  | 0.125 | 0.125 | MIC [10, 27]: 0.25 µg/mL
Cc1c(-c2ccc(N)c(F)c2)ccn2c(=O)c(C(=O)O)cc(C3CC3)c12 [Example 2 K salt, 8-(4-amino-3-fluoro-phenyl)-1-cyclopropyl-9-methyl-4-oxo-4H-quinolizine-3-carboxylic acid] |  |  |  |  |  |  |  |  |  |  | 0.004 | 0.016 to 0.031 | 0.063 | 0.063 | 0.016 | 0.031 | 0.016 | 0.125 | 0.032 | 0.125 | MIC [1, 32]: ≤ 0.004 µg/mL; MIC [2]: 0.004 µg/mL; MIC [3]: 0.125 µg/mL; MIC [4, 33]: 0.25 µg/mL; MIC [7, 35]: 0.032 µg/mL; MIC [9, 37]: 1 µg/mL; MIC [11, 38]: ≤ 0.004 µg/mL; MIC [12, 39]: 0.125 µg/mL
